In patent US20080045489A1, “3,4-DI-SUBSTITUTED CYCLOBUTENE-1,2-DIONES AS CXC-CHEMOKINE RECEPTOR LIGANDS” (priority 2006, published 2008):
One block for each compound: values may come before it.

Target: T1, CXCR2 (Homo sapiens, UniProt P25025)
T1 construct: expressed in transfected cells; host or cells: Ba/F3 (Baf3) cells; membranes, clone designation [Hi70]
T1 sequence (P25025 1-360): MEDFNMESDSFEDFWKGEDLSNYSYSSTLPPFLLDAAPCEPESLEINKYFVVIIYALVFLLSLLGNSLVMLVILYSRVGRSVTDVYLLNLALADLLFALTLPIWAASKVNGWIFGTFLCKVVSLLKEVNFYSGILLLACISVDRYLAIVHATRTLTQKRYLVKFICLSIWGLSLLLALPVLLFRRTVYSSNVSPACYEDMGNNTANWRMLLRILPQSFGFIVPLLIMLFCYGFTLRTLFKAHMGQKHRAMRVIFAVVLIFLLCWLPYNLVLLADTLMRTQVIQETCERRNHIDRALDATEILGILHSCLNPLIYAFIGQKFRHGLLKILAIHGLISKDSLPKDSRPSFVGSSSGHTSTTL
Test: [35S]GTPγS Binding Assay: inhibition of agonist (GROα) stimulated [35S]GTPγS exchange in membranes expressing CXCR2
Format: biochemical
Details: 1 h; 3 nM compound; Baf3/hCXCR2 membranes; percent inhibition at highest chemokine (hGROα) concentration 500 nM; control (no compound) = 0%, standard = 100%; read-out: % Inhibition GTPyS
Description: [^35S]GTPγS Binding Assay:
This assay measures the inhibition of agonist (GROα) stimulated guanosine 5′-[γ-^35S]triphospate ([^35S]GTPγS, triethylammonium salt) exchange in membranes expressing CXCR2.
For each assay point, 2 μg of membrane (Baf3/hCXCR22 [Hi70]), 200 μg wheat germ agglutinin-coated SPA beads (WGA-SPA; Amersham, Arlington Heights, Ill.), 3 μM guanosine 5′-diphosphate (GDP) ±3 nM compound are pre-incubated for 3 hrs at room temperature (mixing by inversion) in SPA binding buffer (50 mM TRIS-HCL, 1 mM CaCl2, 5 mM MgCl2, 50 mM NaCl, 0.002% NaN3, 0.1% BSA, 10 μg/ml saponin, pH=7.6).
The bead, membrane, compound mixture is transferred to a 96-well Isoplate (Wallac, Gaithersburg, Md.) and pre-incubated for 60 min with concentrations of chemokine (hGROα) ranging from 500 nM to 1 nM with a no chemokine sample serving as a control. The GTPγS exchange reaction was initiated by the addition of 0.1 nM [^35S]GTPγS and the incubation for 60 min at room temperature. Assay is terminated by the addition of 10 μl “Stop Solution” (0.5M Na-EDTA; 10 μM GDP).
Membrane-bound [^35S]GTPγS was measured using a 1450 Microbeta Trilux counter (Wallac, Gaithersburg, Md.). Data is calculated as percent inhibition at the highest chemokine concentration (500 nM). The control (No compound addition), which is set to 0%, versus the % inhibition of the standard, which is set at 100%. The standard used is: [drawing 19]

Structure (SMILES): CC[C@@H](Nc1c(Nc2cccc(C(=O)N3CCOCC3)c2O)c(=O)c1=O)c1cc(C(C)C)c(C)o1 [Compound 1, 4-[2-HYDROXY-3-[[2-[[1(R)-[5-METHYL- 4-(1-METHYLETHYL)-2-FURANYL]- PROPYL]AMINO]-3,4-DIOXO-1- CYCLOBUTEN-1-YL]AMINO]BENZOYL]- MORPHOLINE]
inhibition at 0.003 µM: 137%

Structure (SMILES): CC[C@@H](Nc1c(Nc2cccc(C(=O)N(C)C)c2O)c(=O)c1=O)c1cc(Br)c(C)o1 [Compound 3, 3-[[2-[[1(R)-(4-BROMO-5-METHYL-2- FURANYL)PROPYL]AMINO]-3,4-DIOXO- 1-CYCLOBUTEN-1-YL]AMINO]-2- HYDROXY-N,N-DIMETHYLBENZAMIDE]
inhibition at 0.003 µM: 122%

Structure (SMILES): CC[C@@H](Nc1c(Nc2cccc(C(=O)N(C)C)c2O)c(=O)c1=O)c1cc(Cl)c(C)o1 [Compound 4, 3-[[2-[[1(R)-(4-CHLORO-5-METHYL-2- FURANYL)PROPYL]AMINO]-3,4-DIOXO- 1-CYCLOBUTEN-1-YL]AMINO]-2- HYDROXY-N,N-DIMETHYLBENZAMIDE]
inhibition at 0.003 µM: 120%

Structure (SMILES): CC[C@@H](Nc1c(Nc2cccc(C(=O)N3CC[C@H](O)C3)c2O)c(=O)c1=O)c1cc(Br)c(C)o1 [Compound 5, 1-[3-[[2-[[1(R)-(4-BROMO-5-METHYL-2- FURANYL)PROPYL]AMINO]-3,4-DIOXO- 1-CYCLOBUTEN-1-YL]AMINO]-2- HYDROXYBENZOYL]-3(S)- PYRROLIDINOL]
inhibition at 0.003 µM: 119%

Structure (SMILES): CC[C@@H](Nc1c(Nc2cccc(C(=O)N3CCC3)c2O)c(=O)c1=O)c1cc(C2CC2)c(C)o1 [Compound 6, 1-[3-[[2-[[1(R)-(4-CYCLOPROPYL-5- METHYL-2-FURANYL)PROPYL]AMINO]- 3,4-DIOXO-1-CYCLOBUTEN-1- YL]AMINO]-2-HYDROXYBENZOYL]- AZETIDINE]
inhibition at 0.003 µM: 115%

Structure (SMILES): CC[C@@H](Nc1c(Nc2cccc(C(=O)N3CCOCC3)c2O)c(=O)c1=O)c1cc(Br)c(C)o1 [Compound 7, 4-[3-[[2-[[1(R)-(4-BROMO-5-METHYL-2- FURANYL)PROPYL]AMINO]-3,4-DIOXO- 1-CYCLOBUTEN-1-YL]AMINO]-2- HYDROXYBENZOYL]MORPHOLINE]
inhibition at 0.003 µM: 114%

Structure (SMILES): CC[C@@H](Nc1c(Nc2cccc(C(=O)N(C)C)c2O)c(=O)c1=O)c1cc(C(C)C)c(C)o1 [Compound 8, 2-HYDROXY-N,N-DIMETHYL-3-[[2- [[1(R)-[5-METHYL-4-(1-METHYLETHYL)- 2-FURANYL]PROPYL]AMINO]-3,4- DIOXO-1-CYCLOBUTEN-1-YL]AMINO]- BENZAMIDE]
inhibition at 0.003 µM: 112%

Structure (SMILES): CC[C@@H](Nc1c(Nc2cccc(C(=O)N(C)C)c2O)c(=O)c1=O)c1cc(C2CC2)c(C)o1 [Compound 12, 3-[[2-[[1(R)-(4-CYCLOPROPYL-5- METHYL-2-FURANYL)PROPYL]AMINO]- 3,4-DIOXO-1-CYCLOBUTEN-1-YL]- AMINO]-2-HYDROXY-N,N-DIMETHYL- BENZAMIDE]
inhibition at 0.003 µM: 107%

Structure (SMILES): CC[C@@H](Nc1c(Nc2cccc(C(=O)N3CC[C@@H](O)C3)c2O)c(=O)c1=O)c1cc(Br)c(C)o1 [Compound 16, 1-[3-[[2-[[1(R)-(4-BROMO-5-METHYL-2- FURANYL)PROPYL]AMINO]-3,4-DIOXO- 1-CYCLOBUTEN-1-YL]AMINO]-2- HYDROXYBENZOYL]-3(R)- PYRROLIDINOL]
inhibition at 0.003 µM: 101%

Other lines, results leading:

inhibition at 0.003 µM: 132%
Structure (SMILES): CC[C@@H](Nc1c(Nc2cccc(C(=O)N3CCCC3)c2O)c(=O)c1=O)c1cc(C(C)C)c(C)o1 [Compound 2, 1-[2-HYDROXY-3-[[2-[[1(R)-[5-METHYL- 4-(1-METHYLETHYL)-2-FURANLY]- PROPYL]AMINO]-3,4-DIOXO-1- CYCLOBUTEN-1-YL]AMINO]-BENZOYL]PYRROLIDINE]

inhibition at 0.003 µM: 110%
Structure (SMILES): CC[C@@H](Nc1c(Nc2cccc(C(=O)N3CCCC3)c2O)c(=O)c1=O)c1cc(Br)c(C)o1 [Compound 9, 1-[3-[[2-[[1(R)-(4-BROMO-5-METHYL-2- FURANYL)PROPYL]AMINO]-3,4-DIOXO- 1-CYCLOBUTEN-1-YL]AMINO]-2- HYDROXYBENZOYL]PYRROLIDINE]

inhibition at 0.003 µM: 109%
Structure (SMILES): CC[C@@H](Nc1c(Nc2cccc(C(=O)N(C)C)c2O)c(=O)c1=O)c1cc(C(C)C)c(Br)o1 [Compound 10, 3-[[2-[[1(R)-[5-BROMO-4-(1-METHYL- ETHYL)-2-FURANYL]PROPYL]AMINO]- 3,4,-DIOXO-1-CYCLOBUTEN-1-YL]- AMINO]-2-HYDROXY-N,N-DIMETHYL- BENZAMIDE]

inhibition at 0.003 µM: 109%
Structure (SMILES): CC[C@@H](Nc1c(Nc2cccc(C(=O)N(C)C)c2O)c(=O)c1=O)c1cc(C2CCCC2)c(C)o1 [Compound 11, 3-[[2-[[1(R)-(4-CYCLOPENTYL-5- METHYL-2-FURANYL)PROPYL]AMINO]- 3,4-DIOXO-1-CYCLOBUTEN-1-YL]- AMINO]-2-HYDROXY-N,N-DIMETHYL- BENZAMIDE]

inhibition at 0.003 µM: 105%
Structure (SMILES): CC[C@@H](Nc1c(Nc2cccc(C(=O)N(C)C)c2O)c(=O)c1=O)c1cc(C(C)C)c(C2CC2)o1 [Compound 13, 3-[[2-[[1(R)-[5-CYCLOPROPYL-4-(1- METHYLETHYL)-2-FURANYL]PROPYL]- AMINO]-3,4-DIOXO-1-CYCLOBUTEN-1- YL]AMINO]-2-HYDROXY-N,N- DIMETHYLBENZAMIDE]

inhibition at 0.003 µM: 103%
Structure (SMILES): CC[C@@H](Nc1c(Nc2cccc(C(=O)N3CCOCC3)c2O)c(=O)c1=O)c1cc(C2CC2)c(C)o1 [Compound 14, 4-[3-[[2-[[1(R)-(4-CYCLOPROPYL-5- METHYL-2-FURANYL)PROPYL]AMINO]- 3,4-DIOXO-1-CYCLOBUTEN-1-YL]- AMINO]-2-HYDROXYBENZOYL]- MORPHOLINE]

inhibition at 0.003 µM: 103%
Structure (SMILES): CCc1oc([C@@H](CC)Nc2c(Nc3cccc(C(=O)N4CCC4)c3O)c(=O)c2=O)cc1Br [Compound 15, 1-[3-[[2-[[1(R)-(4-BROMO-5-ETHYL-2- FURANYL)PROPYL]AMINO]-3,4-DIOXO- 1-CYCLOBUTEN-1-YL]AMINO]-2- HYDROXYBENZOYL]AZETIDINE]

inhibition at 0.003 µM: 100%
Structure (SMILES): CC[C@@H](Nc1c(Nc2cccc(C(=O)N3CCC3)c2O)c(=O)c1=O)c1cc(C(C)C)c(C)o1 [Compound 17, 1-[2-HYDROXY-3-[[2-[[1(R)-[5-METHYL- 4-(1-METHYLETHYL)-2-FURANYL]- PROPYL]AMINO]-3,4-DIOXO-1- CYCLOBUTEN-1-YL]AMINO]- BENZOYL]AZETIDINE]

inhibition at 0.003 µM: 99%
Structure (SMILES): CCc1oc([C@@H](CC)Nc2c(Nc3cccc(C(=O)N(C)C)c3O)c(=O)c2=O)cc1Br [Compound 18, 3-[[2-[[1(R)-(4-BROMO-5-ETHYL-2- FURANYL)PROPYL]AMINO]-3,4-DIOXO- 1-CYCLOBUTEN-1-YL]AMINO]-2- HYDROXY-N,N-DIMETHYLBENZAMIDE]
